Reference: patent US20210015764A1, “METHODS OF REDUCING INFLAMMATION OF THE DIGESTIVE SYSTEM WITH INHIBITORS OF HIF-2- ALPHA” (Peloton Therapeutics Inc., priority 2018, published 2021)
Read-outs that look alike come from different tables or passages of the source.

Assays:
[1] = system: 786-O cells; test: VEGF ELISA assay; type: cell-based; settings: Homo sapiens, 786-0, VEGF in culture medium
Procedure: Each concentration was plated in duplicate. About 20 hours later, medium was removed by suction and each well was supplied with 180 μL of growth medium. About 20 μl freshly-made 10× compound stocks were added to each well. […] The EC50 was calculated by GraphPad Prism using the dose-response-inhibition (four parameter) equation. The cell-seeded plate was then subjected to CellTiter-Glo luminescence cell viability assay (Promega) by adding 50 μL of Celltiter Glo reagent into each well and shaking the plate for 8 minutes at 550 rpm (Thermomixer R, Eppendorf) then the luminescence signal immediately read in a plate reader (3 second delay, 0.5 second/well integration time, Synergy 2 multi Detection Microplate reader).

[2] = system: 786-O-Hif-Luc cells; test: Luciferase assay (HIF responsive element reporter); settings: 24 h
Procedure: A pool of infected cells were then selected against 2 g/mL of puromycin (P8833, Sigma) for 10 days followed by limited dilution to select single clones.
Each concentration was tested in triplicate. After about 24 hours, luciferase activity was determined using ONE-Glo Luciferase Assay Reagent (E6110, Promega) following the manufacturer's recommended procedure. EC50 were calculated using Dotmatics software.

[3] = molecular target: T1, HIF-2α HIS TAG-PASB Domain (Homo sapiens, UniProt Q99814); test: HIF-2α Scintillation Proximity Assay (SPA); type: binding
T1 construct: 100 nM HIF-2α HIS TAG-PASB Domain
T1 sequence (Q99814 240-350 limits assumed): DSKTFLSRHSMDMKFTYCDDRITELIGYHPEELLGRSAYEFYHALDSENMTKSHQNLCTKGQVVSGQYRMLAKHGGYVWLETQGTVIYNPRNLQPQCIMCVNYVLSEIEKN
Procedure: The total assay volume was about 100 μL in the following configuration: 2 μL compound in 100% DMSO, 88 μL buffer with protein and probe and 10 μL of SPA beads. […] The percent inhibition was determined and IC50 values were calculated using the Dotmatics system based on the following equation: % inhibition=[(high control−sample)/(high control−low control)]×100.

[4] = system: DSS induced colitis; test: DSS-induced model of colitis, two DSS cycles (Example 12); type: in vivo; settings: female C57BI6 mice, Compound 231 60 mg/kg BID, filgotinib 30 mg/kg QD; for colon length: day 27
Procedure: 6-8 week old female C57BI6 mice were tagged and weighed, then treated with 2% dextran sulfate sodium (DSS) for 6 days. A 2 week recovery phase of regular water was completed over days 7-19. […] Mice were monitored daily and scored for body weight loss, stool consistency/diarrhea, and blood in the feces/rectum. The disease activity index was calculated according to Table 4. The second DSS cycle and treatment regimen continued for 7 days, and then on day 27 the animals were sacrificed. Colons were harvested and the texture, appearance and length of the colons assessed. Colon tissues were prepared for H&E histology, immune gene expression analysis, and immune phenotyping of immune cell infiltrate by flow cytometry. [table]

[5] = read-out: Mean Luciferase EC50 (nM)
[6] = read-out: Mean Luciferase EC50 (nM), 786-O-Hif-Luc cells, about 24 hours
[7] = probe displacement from HIF-2α PAS-B domain, read-out: Scintillation Proximity Assay IC50

| EC50 [2, 5] [nM] | Structure (SMILES) | other results |
| --- | --- | --- |
| – | O=S(=O)(c1ccc(OC2CCOCC2)c2c1[C@@H](O)C(F)(F)C2)C(F)F [Compound 782] | EC50 [2, 6]: 50 to 249 nM; IC50 [3, 7]: 50 to 249 nM |
| – | N#Cc1cc(F)cc(Oc2ccc(S(=O)(=O)C(F)(F)F)c3c2C[C@@H](F)[C@H]3O)c1 [Compound 227] | EC50 [2, 6]: < 50 nM |
| – | N#Cc1ccc(Oc2cc(F)cc(F)c2)c2c1[C@H](O)C(F)(F)C2 [Compound 67] | EC50 [1]: 50 to 249 nM |
| < 50 | NS(=O)(=O)c1ccc(Oc2cc(F)cc(F)c2)c2c1[C@H](O)C(F)(F)C2 [Compound 256] | – |
| – | O=S1(=O)c2ccc(OC3CCOCC3)c(C(F)F)c2C(O)C1(F)F (stereo not shown) [Compound 400] | EC50 [2, 6]: > 1000 nM; IC50 [3, 7]: > 1000 nM |
| – | N#Cc1cc(F)cc(Oc2ccc(S(=O)(=O)C(F)F)c3c2CCC3O)c1 (stereo not shown) [Compound 78] | EC50 [1]: 250 to 1000 nM |
| – | CCCNc1ccc(S(=O)(=O)C(F)F)c2c1CC(F)(F)[C@H]2O [Compound 532] | EC50 [2, 6]: 250 to 1000 nM; IC50 [3, 7]: < 50 nM |
| 50 to 249 | N#Cc1cc(F)cc(Oc2ccc(S(=O)(=O)C(F)(F)F)c3c2CC(F)(F)[C@H]3N)c1 [Compound 290] | – |
| – | CC(C)(C)OC(=O)NC1CC(Oc2ccc(S(=O)(=O)C(F)(F)F)c3c2CC(F)(F)[C@H]3O)C1 (stereo partly shown) [Compound 722] | EC50 [2, 6]: > 1000 nM |
| 250 to 1000 | C[C@H]1C[C@@H](O)c2c(S(=O)(=O)C(F)F)ccc(Oc3cc(F)cc(Cl)c3)c21 [Compound 7a] | – |
| – | O=S(=O)(c1ccc(OC2CC(O)C2)c2c1[C@H](O)C(F)(F)C2)C(F)(F)F (stereo partly shown) [Compound 644] | EC50 [2, 6]: 250 to 1000 nM |
| 50 to 249 | CS(=O)(=O)c1ccc(Oc2cc(F)cc(C#N)c2)c2c1[C@H](N)C(F)(F)C2 [Compound 165] | – |
| < 50 | [2H][C@]1(O)c2c(S(C)(=O)=O)ccc(Oc3cc(F)cc(C#N)c3)c2CC1(F)F [Compound 247] | – |
| < 50 | N#Cc1cncc(Oc2ccc(S(=O)(=O)C(F)(F)F)c3c2CC(F)(F)[C@H]3O)c1 [Compound 235] | – |
| 50 to 249 | N#Cc1cc(F)cc(Oc2ccc(S(=O)(=O)C(F)(F)F)c3c2CC[C@H]3O)c1 [Compound 57] | – |
| < 50 | N#Cc1cc(F)cc(Oc2ccc(S(N)(=O)=O)c3c2[C@@H](F)C(F)(F)[C@H]3O)c1 [Compound 338] | – |
| 250 to 1000 | O=S(=O)(c1ccc(Oc2cc(F)cc(Cl)c2)c(Cl)c1CO)C(F)F [Compound 41] | EC50 [1]: 250 to 1000 nM |
| – | O=C1CCC(Oc2ccc(S(=O)(=O)C(F)(F)F)c3c2CC(F)(F)[C@H]3O)CN1 (stereo partly shown) [Compound 719] | IC50 [3, 7]: > 1000 nM |
| 50 to 249 | CS(=O)(=O)c1ccc(Oc2cc(F)cc(C#N)c2)c2c1C(O)C(F)(F)C2 (stereo not shown) [Compound 223] | – |
| < 50 | [2H]C([2H])([2H])S(=O)(=O)c1ccc(Oc2cc(F)cc(C#N)c2)c2c1[C@]([2H])(O)C(F)(F)C2 [Compound 229] | – |
| – | N#Cc1cc(F)cc(Oc2ccc3c(c2Br)C(N)C(F)(F)S3(=O)=O)c1 (stereo not shown) [Compound 376] | EC50 [2, 6]: > 1000 nM; IC50 [3, 7]: < 50 nM |

| EC50 [2, 5] [nM] | Structure (SMILES) | other results |
| --- | --- | --- |
| 50 to 249 | CNS(=O)(=O)c1ccc(Oc2cc(F)cc(C#N)c2)c2c1[C@H](O)C(F)(F)C2 [Compound 254] | – |
| 250 to 1000 | N#Cc1cc(F)cc(Oc2ccc(S(N)(=O)=O)c3c2[C@H](F)C(F)(F)[C@H]3O)c1 [Compound 339] | – |
| – | O=S(=O)(c1ccc(Oc2cc(F)cc(Cl)c2)c2c1C(O)CC2)C(F)F (stereo not shown) [Compound 17] | EC50 [1]: 50 to 249 nM |
| 250 to 1000 | CS(=O)(=O)c1ccc(Oc2cc(F)cc(C#N)c2)c2c1[C@H](O)[C@@H](F)C2 [Compound 271] | – |
| – | O=S(=O)(c1ccc(Oc2cc(F)cc(Cl)c2)c2c1[C@H](O)C[C@@H]2CO)C(F)(F)F [Compound 281] | IC50 [3, 7]: 250 to 1000 nM |
| < 50 | N#Cc1cc(Cl)cc(Oc2ccc(S(=O)(=O)CF)c3c2CC(F)(F)[C@H]3O)c1 [Compound 167] | – |
| < 50 | CS(=O)(=O)c1ccc(Oc2cc(F)cc(C#N)c2)c2c1C(O)C(F)C2 (stereo not shown) [Compound 232] | – |
| > 1000 | N#Cc1cc(F)cc(Oc2ccc(S(=O)(=O)C(F)(F)F)c3c2CCC3O)c1 (stereo not shown) [Compound 258] | – |
| < 50 | CS(=O)(=O)c1ccc(Oc2cc(Cl)cc(C#N)c2)c2c1[C@H](O)C(F)(F)C2 [Compound 234] | EC50 [1]: 50 to 249 nM |
| 50 to 249 | CCS(=O)(=O)c1ccc(Oc2cc(F)cc(C#N)c2)c2c1[C@H](O)C(F)(F)C2 [Compound 206] | – |
| < 50 | CS(=O)(=O)c1ccc(Oc2cc(F)cc(C#N)c2)c2c1[C@H](O)C(F)(F)C2 [Compound 163, (S)-3-((2,2-difluoro-1-hydroxy-7-(methylsulfonyl)-2,3-dihydro-1H-inden-4-yl)oxy)-5-fluorobenzonitrile] | – |
| – | O=S(=O)(c1ccc(Oc2cc(F)cc(Cl)c2)c2c1[C@H](O)CC2)C(F)F [Compound 1] | EC50 [1]: 250 to 1000 nM |
| – | COCc1c(S(=O)(=O)C(F)F)ccc(Oc2cc(F)cc(Cl)c2)c1Cl [Compound 44] | IC50 [3]: > 1000 nM |
| 250 to 1000 | N#Cc1cccc(Oc2ccc(S(=O)(=O)C(F)F)c3c2CC[C@H]3O)c1 [Compound 156] | – |
| – | N#Cc1cc(F)cc(-c2cnc(C(F)(F)F)c3c2C[C@@H](F)[C@H]3O)c1 [Compound 471] | IC50 [3, 7]: 250 to 1000 nM |
| > 1000 | CS(=O)(=O)c1ccc(Oc2cc(F)cc(C#N)c2)c2c1[C@@H](O)C(F)(F)C2 [Compound 226] | – |
| – | O=S(=O)(c1ccc(OC2=CC=CN3CC=NC23)c2c1C(O)C(F)(F)C2)C(F)(F)F (stereo not shown) [Compound 246] | IC50 [3, 7]: > 1000 nM |
| – | O=C(Nc1nc2cccc(-c3ccc(CN4CCS(=O)(=O)CC4)cc3)n2n1)C1CC1 [filgotinib] | colon length [4]: This effect was reversed; disease activity index score ([4]; second DSS cycle ([…] DSS, 7 days), vehicle group 6-7): slight decrease in the disease activity index, but only in the later stage of the disease progression |
| 50 to 249 | CNS(=O)(=O)c1ccc(Oc2cc(F)cc(F)c2)c2c1[C@H](O)C(F)(F)C2 [Compound 251] | – |
| 50 to 249 | N#Cc1cc(F)cc(Oc2ccc(S(N)(=O)=O)c3c2CC(F)(F)[C@H]3O)c1 [Compound 252] | – |
| < 50 | CS(=O)(=O)c1ccc(Oc2cc(F)cc(C#N)c2)c2c1[C@H](O)[C@H](F)C2 [Compound 231] | colon length [4]: greatest improvement in colon length |

| Structure (SMILES) | EC50 [2, 5] [nM] | other results |
| --- | --- | --- |
| O=S(=O)(c1ccc(Oc2cc(F)cc(Cl)c2)c(C(F)F)c1)C(F)(F)F [Compound 124] | 250 to 1000 | EC50 [1]: 250 to 1000 nM |
| CS(=O)(=O)c1ccc(Oc2cc(F)cc(C#N)c2)c2c1[C@H](O)[C@H](F)[C@@H]2F [Compound 289, 3-[(1S,2S,3R)-2,3-difluoro-1-hydroxy-7-methylsulfonyl-indan-4-yl]oxy-5-fluoro-benzonitrile] | < 50 | – |
| N#Cc1cc(F)cc(Oc2ccc(S(=O)(=O)C(F)F)c3c2CC[C@H]3O)c1 [Compound 155] | 50 to 249 | EC50 [1]: 50 to 249 nM |
